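A five-concentration, 48-hour dose response in 96-well plates underlies each endpoint, interpolated linearly between surrounding concentrations. GI50 marks 50% less growth. TGI is the concentration that stops growth completely.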 *1 amine or outer side, *2 acyl side, *3 side chain or, on linkers, in order; H or OH if unused. Where a SMILES comes first, the peptide text is derived from it. CO = O=C([*:1])[*:2]

Here are results for seven compounds from PubChem BioAssay (NCI).

Common to all, as to test: NCI tumour cell line growth inhibition, 48 h
Experiment [1] concerns DU-145 prostate.
Experiment [2] relates to HCT-15 colon.
For experiment [3], the system named is HS 578T breast.
The test system of experiment [4] is MALME-3M melanoma.
Experiment [5] relates to NCI-H522 lung.
Experiment [6] deals with SK-MEL-5 melanoma.
Experiment [7] has as its system SNB-19 CNS.
Experiment [8] deals with U251 CNS.

For the compound `OCC1OC(O)C(N=Cc2ccc3c(c2)OCO3)C(O)C1O` (centres undefined), the TGI in experiment [1], in experiment [2], in experiment [3], in experiment [4], in experiment [5] and in experiment [6] was above 100 µM in each case. Besides, the TGI in experiment [7] and in experiment [8] was above 100 µM in each case.
In the case of `CNC(=O)c1ccc(Nc2nc(OC3CCCC3)c3c(-c4ccc5nc(C)oc5c4)c[nH]c3n2)c(OC)c1`, the GI50 in experiment [1] is 6.31 µM; in experiment [2] it was 0.0689 µM; in experiment [3] it was 31.5 µM; in experiment [4] it was 21.6 µM; in experiment [5], 1.67 µM; in experiment [6] it was 2.12 µM. Besides, the GI50 in experiment [7] is 10 µM; in experiment [8], 15.3 µM. For the same compound, the TGI in experiment [1], in experiment [2], in experiment [3], in experiment [4], in experiment [5] and in experiment [6] was above 100 µM each time. The TGI in experiment [7] and in experiment [8] was above 100 µM in each case.
For the compound `COc1cc(-c2ccc(-[n+]3nc(-c4ccc([N+](=O)[O-])cc4)nn3-c3ccc([N+](=O)[O-])cc3)c(OC)c2)ccc1-[n+]1nc(-c2ccc([N+](=O)[O-])cc2)nn1-c1ccc([N+](=O)[O-])cc1`, the GI50 in experiment [1] is 2.9 µM; in experiment [2], 6.17 µM; in experiment [3], 1.93 µM; in experiment [4], 1.89 µM; in experiment [5], 0.672 µM; in experiment [6], 4.28 µM. Further, the GI50 is 11.9 µM in experiment [7] and 10.8 µM in experiment [8]. Also, the TGI in experiment [1] worked out at 9.29 µM; in experiment [2], 49.5 µM; in experiment [3] it was 5.07 µM; in experiment [4] it was 4.47 µM; in experiment [5], 7.71 µM; in experiment [6], 23.6 µM. In addition, the TGI in experiment [7] was 69.3 µM; in experiment [8], 38.7 µM.
Take `CC(C)C(NC(=O)C(CCCN=C(N)N)NC(=O)NC(Cc1ccccc1)C(=O)O)C(=O)NC(C=O)CCCN=C(N)N` (stereo not drawn) ({Phe-CO}-Arg-Val-Arg-aldehyde; configuration not given here): the GI50 in experiment [1], in experiment [2], in experiment [3], in experiment [4], in experiment [5] and in experiment [6] was above 5 µM in each case. Also, the GI50 in experiment [7] and in experiment [8] was above 5 µM each time. For the same compound, the TGI in experiment [1], in experiment [2], in experiment [3], in experiment [4], in experiment [5] and in experiment [6] was above 5 µM in each case. Further, the TGI in experiment [7] and in experiment [8] was above 5 µM in each case.
Regarding `O=C(Nc1nc(-c2ccc(Cl)cc2)cs1)c1ccc(O)c(O)c1`, the GI50 was 4.43 µM in experiment [1]; 3.14 µM in experiment [2]; 9.45 µM in experiment [3]; 5.73 µM in experiment [4]; 1.8 µM in experiment [5]; 2.98 µM in experiment [6]. Also, the GI50 is 3.82 µM in experiment [7] and 3 µM in experiment [8]. Also, the TGI in experiment [1] is 15.9 µM; in experiment [2] it was 18.3 µM; in experiment [3] it was 53.9 µM; in experiment [4] it was 22.2 µM; in experiment [5] it was 9.97 µM; in experiment [6], 12 µM. In addition, the TGI was found to be 19.7 µM in experiment [7] and 13.7 µM in experiment [8].
Regarding `Cc1cc(S(=O)(=O)/N=C(\N)n2nc(C)c(C)c2C)c(SCc2ccccc2)cc1Cl`, the GI50 in experiment [1] was above 100 µM; in experiment [2], 7.1 µM; in experiment [3], above 100 µM; in experiment [4] it was above 100 µM; in experiment [5] it was above 100 µM; in experiment [6] it was 5.65 µM. The values for the GI50 in experiment [7] and in experiment [8] were above 100 µM and 7.47 µM, respectively. In addition, the TGI in experiment [1], in experiment [2], in experiment [3], in experiment [4], in experiment [5] and in experiment [6] was above 100 µM each time. Further, the TGI in experiment [7] and in experiment [8] was above 100 µM each time.
As for `Cc1cc(Nc2nc(N3CCOCC3)nc3ccccc23)n[nH]1`, the GI50 was 13.3 µM in experiment [1]; 3.54 µM in experiment [2]; 1.44 µM in experiment [3]; 44.2 µM in experiment [4]; 17.4 µM in experiment [5]; 18.8 µM in experiment [6]. Also, the GI50 in experiment [7] is 26 µM; in experiment [8] it was 4.83 µM. In addition, the TGI in experiment [1] was above 100 µM; in experiment [2], above 100 µM; in experiment [3], 4.78 µM; in experiment [4], above 100 µM; in experiment [5] it was above 100 µM; in experiment [6], above 100 µM. Moreover, the results for the TGI in experiment [7] and in experiment [8] were above 100 µM and 21.6 µM, respectively.
